Patent publication US9187435B2, “Bridged Spiro[2.4]heptane ester derivatives” (Actelion Pharmaceuticals Ltd., priority 2010, dated 2015)
Counter-ions that a name gives are not always drawn.

Molecular target: T1, human ALX receptor (Homo sapiens, UniProt P25090)
T1 construct: expressed in transfected cells; host or cells: HEK293 (HEK293-hALXR-Gα16)
T1 sequence (P25090 1-351): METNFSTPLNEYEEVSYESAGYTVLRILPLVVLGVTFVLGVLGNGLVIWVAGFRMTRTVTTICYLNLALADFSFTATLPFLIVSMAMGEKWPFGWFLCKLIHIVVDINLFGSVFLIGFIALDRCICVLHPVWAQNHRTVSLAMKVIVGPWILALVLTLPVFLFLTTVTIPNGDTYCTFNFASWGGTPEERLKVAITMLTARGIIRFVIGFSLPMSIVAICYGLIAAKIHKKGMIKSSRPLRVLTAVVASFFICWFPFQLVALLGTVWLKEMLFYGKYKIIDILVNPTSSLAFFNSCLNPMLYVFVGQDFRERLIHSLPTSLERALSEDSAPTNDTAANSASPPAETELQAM
Assay: Intracellular calcium measurements (FLIPR) in HEK293-hALXR-Gα16 cells, agonistic activity
Type: cell-based
Settings: values normalized to WKYMVm 10 nM
Description: The ALX receptor and FPRL2 agonistic activities of the compounds of formula (I) are determined in accordance with the following experimental method.
Intracellular Calcium Measurements:
Cells expressing recombinant human ALX receptor and the G-protein Gα16 (HEK293-hALXR-Gα16) were grown to 80% confluency in Growing Medium (GM). Cells were detached from culture dishes with a cell dissociation buffer (Invitrogen, 13151-014), and collected by centrifugation at 1,000 rpm at rt for 5 min in Assay Buffer (AB) (equal parts of Hank's BSS (Gibco, 14065-049) and DMEM without Phenol Red (Gibco, 11880-028)). After 60 min incubation at 37° C. under 5% CO2 in AB supplemented with 1 μM Fluo-4 (AM) (Invitrogen, F14202), and 20 mM HEPES (Gibco, 15630-056), the cells were washed and resuspended in AB. They were then seeded onto 384-well FLIPR assay plates (Greiner, 781091) at 50,000 cells in 70 μl per well and sedimented by centrifugation at 1,000 rpm for 1 min. Stock solutions of test compounds were made up at a concentration of 10 mM in DMSO, and serially diluted in AB to concentrations required for activation dose response curves. WKYMVm (Phoenix Peptides) was used as a reference agonist. FLIPR384 or FLIPR Tetra instruments (Molecular Devices) were operated according to the manufacturer's standard instructions, adding 4 μl of test compound dissolved at 10 mM in DMSO and diluted prior to the experiment in assay buffer to obtain the desired final concentration. Changes in fluorescence were monitored before and after the addition of test compounds at lex=488 nm and lem=540 nm. Emission peak values above base level after compounds addition were exported after base line subtraction. Values were normalized to high-level control (WKYMVm compound, 10 nM final concentration) after subtraction of the base line value (AB addition).

Structure (SMILES) | EC50 [nM]
O=C(O[C@H]1CCNC[C@H]1F)[C@H]1[C@H](C(=O)Nc2ccc(Br)nc2)[C@@H]2CC[C@H]1C21CC1 (relative stereo) [Example 74, (1S,2R,3R,4R)-[cis-3-Fluoro-piperidin-4-yl 2-((6-bromopyridin-3-yl)carbamoyl)spiro[bicyclo[2.2.1]heptane-7,1′-cyclopropane]-3-carboxylate]] | 280
CN1CCC(OC(=O)[C@H]2[C@H](C(=O)Nc3ccc(Br)nc3)[C@@H]3CC[C@H]2C32CC2)CC1 [Example 6, (1S,2R,3R,4R)-[1-Methylpiperidin-4-yl 2-((6-bromopyridin-3-yl)carbamoyl)spiro[bicyclo[2.2.1]heptane-7,1′-cyclopropane]-3-carboxylate]] | 257
O=C(OCCOCCN1CC[C@H](F)C1)[C@H]1[C@H](C(=O)NCc2ccc(Br)cc2F)[C@@H]2CC[C@H]1C21CC1 [Example 69, (1S,2R,3R,4R)-[(S)-2-(2-(3-Fluoropyrrolidin-1-yl)ethoxy)ethyl 2-((4-bromo-2-fluorobenzyl)carbamoyl)spiro[bicyclo[2.2.1]heptane-7,1′-cyclopropane]-3-carboxylate]] | 145
O=C(OCCN1CCNCC1)[C@H]1[C@H](C(=O)NCc2ccc(Br)cc2F)[C@@H]2CC[C@H]1C21CC1 [Example 71, (1S,2R,3R,4R)-[2-(piperazin-1-yl)ethyl 2-((4-bromo-2-fluorobenzyl)carbamoyl)spiro[bicyclo[2.2.1]heptane-7,1′-cyclopropane]-3-carboxylate]dihydrochloride] | 162
O=C(OCC1CCNCC1)[C@H]1[C@H](C(=O)Nc2ccc(Br)nc2)[C@@H]2CC[C@H]1C21CC1 [Example 41, (1S,2R,3R,4R)-[(Piperidin-4-yl)methyl 2-((6-bromopyridin-3-yl)carbamoyl)spiro[bicyclo[2.2.1]heptane-7,1′-cyclopropane]-3-carboxylate]hydrochloride] | 5.2
O=C(OC1CCNCC1(F)F)[C@H]1[C@H](C(=O)Nc2ccc(Br)nc2)[C@@H]2CC[C@H]1C21CC1 (stereo partly drawn) [Example 56, (1S,2R,3R,4R)-[(3,3-Difluoro-piperidin-4-yl) 2-((6-bromopyridin-3-yl)carbamoyl)spiro[bicyclo[2.2.1]heptane-7,1′-cyclopropane]-3-carboxylate]] | 28.2
O=C(OCCN1CCCC1=O)[C@H]1[C@H](C(=O)Nc2ccc(Br)nc2)[C@@H]2CC[C@H]1C21CC1 [Example 23, (1S,2R,3R,4R)-[2-(2-Oxopyrrolidin-1-yl)ethyl 2-((6-bromopyridin-3-yl)carbamoyl)spiro[bicyclo[2.2.1]heptane-7,1′-cyclopropane]-3-carboxylate]] | 281
O=C(OCCOCCN1CC[C@H](F)C1)[C@H]1[C@H](C(=O)Nc2ccc(Br)nc2)[C@@H]2CC[C@H]1C21CC1 [Example 48, (1S,2R,3R,4R)-[(S)-2-(2-(3-Fluoropyrrolidin-1-yl)ethoxy)ethyl 2-((6-bromopyridin-3-yl)carbamoyl)spiro[bicyclo[2.2.1]heptane-7,1′-cyclopropane]-3-carboxylate]] | 9.9
O=C(OCC1(F)CCNCC1)[C@H]1[C@H](C(=O)Nc2ccc(Br)nc2)[C@@H]2CC[C@H]1C21CC1 [Example 55, (1S,2R,3R,4R)-[(4-Fluoro-piperidin-4-yl)methyl 2-((6-bromopyridin-3-yl)carbamoyl)spiro[bicyclo[2.2.1]heptane-7,1′-cyclopropane]-3-carboxylate]] | 18.5

Other lines, results leading:

EC50 [nM] | Structure (SMILES)
734 | Cc1cc(CNC(=O)[C@H]2[C@H](C(=O)OCC(C)C)[C@H]3CC[C@@H]2C32CC2)no1 [Example 28, (1S,2R,3R,4R)-[Isobutyl 2-(((5-methylisoxazol-3-yl)methyl)carbamoyl)spiro[bicyclo[2.2.1]heptane-7,1′-cyclopropane]-3-carboxylate]]
79.4 | Cc1cc(CNC(=O)[C@H]2[C@H](C(=O)OCCC3CCCNC3)[C@H]3CC[C@@H]2C32CC2)no1 (stereo partly drawn) [Example 17, (1S,2R,3R,4R)-[2-(Piperidin-3-yl)ethyl 2-(((5-methylisoxazol-3-yl)methyl)carbamoyl)spiro[bicyclo[2.2.1]heptane-7,1′-cyclopropane]-3-carboxylate]hydrochloride]
790 | Cc1cc(CNC(=O)[C@H]2[C@H](C(=O)OC3CCCC3)[C@H]3CC[C@@H]2C32CC2)no1 [Example 29, (1S,2R,3R,4R)-[Cyclopentyl 2-(((5-methylisoxazol-3-yl)methyl)carbamoyl)spiro[bicyclo[2.2.1]heptane-7,1′-cyclopropane]-3-carboxylate]]
585 | Cc1cc(CNC(=O)[C@H]2[C@H](C(=O)OCCN(C)C)[C@H]3CC[C@@H]2C32CC2)no1 [Example 27, (1S,2R,3R,4R)-[1-Dimethylaminoeth-2-yl 2-(((5-methylisoxazol-3-yl)methyl)carbamoyl)spiro[bicyclo[2.2.1]heptane-7,1′-cyclopropane]-3-carboxylate]]
808 | CCCOC(=O)[C@H]1[C@H](C(=O)NCc2cc(C)on2)[C@@H]2CC[C@H]1C21CC1 [Example 30, (1S,2R,3R,4R)-[Propyl 2-(((5-methylisoxazol-3-yl)methyl)carbamoyl)spiro[bicyclo[2.2.1]heptane-7,1′-cyclopropane]-3-carboxylate]]
41.4 | Cc1cc(CNC(=O)[C@H]2[C@H](C(=O)OCC3(F)CCNCC3)[C@H]3CC[C@@H]2C32CC2)no1 [Example 59, (1S,2R,3R,4R)-[(4-Fluoro-piperidin-4-yl)methyl 2-(((5-methylisoxazol-3-yl)methyl)carbamoyl)spiro[bicyclo[2.2.1]heptane-7,1′-cyclopropane]-3-carboxylate]]
406 | Cc1cc(CNC(=O)[C@H]2[C@H](C(=O)OCC3CCCCN3C)[C@H]3CC[C@@H]2C32CC2)no1 (stereo partly drawn) [Example 26, (1S,2R,3R,4R)-[1-Methyl-piperidin-2-ylmethyl 2-(((5-methylisoxazol-3-yl)methyl)carbamoyl)spiro[bicyclo[2.2.1]heptane-7,1′-cyclopropane]-3-carboxylate]]
0.4 | O=C(OCCC1CCNCC1)[C@H]1[C@H](C(=O)Nc2ccc(Br)nc2)[C@@H]2CC[C@H]1C21CC1 [Example 36, (1S,2R,3R,4R)-[2-(Piperidin-4-yl)ethyl 2-((6-bromopyridin-3-yl)carbamoyl)spiro[bicyclo[2.2.1]heptane-7,1′-cyclopropane]-3-carboxylate]hydrochloride]
330 | Cc1cc(CNC(=O)[C@H]2[C@H](C(=O)OCCCN(C)C)[C@H]3CC[C@@H]2C32CC2)no1 [Example 25, (1S,2R,3R,4R)-[1-Dimethylaminoprop-3-yl 2-(((5-methylisoxazol-3-yl)methyl)carbamoyl)spiro[bicyclo[2.2.1]heptane-7,1′-cyclopropane]-3-carboxylate]]
15.5 | O=C(OCC1CCCNC1)[C@H]1[C@H](C(=O)Nc2ccc(Br)nc2)[C@@H]2CC[C@H]1C21CC1 (stereo partly drawn) [Example 12, (1S,2R,3R,4R)-[Piperidin-3-ylmethyl 2-((6-bromopyridin-3-yl)carbamoyl)spiro[bicyclo[2.2.1]heptane-7,1′-cyclopropane]-3-carboxylate]hydrochloride]
107 | Cc1cc(CNC(=O)[C@H]2[C@H](C(=O)OCCC(N)=O)[C@H]3CC[C@@H]2C32CC2)on1 [Example 65, (1S,2R,3R,4R)-[(3-Amino-3-oxopropyl) 2-(((3-methylisoxazol-5-yl)methyl)carbamoyl)spiro[bicyclo[2.2.1]heptane-7,1′-cyclopropane]-3-carboxylate]]
9.7 | Cc1cc(CNC(=O)[C@H]2[C@H](C(=O)OCCC3CCNCC3)[C@H]3CC[C@@H]2C32CC2)no1 [Example 47, (1S,2R,3R,4R)-[2-(Piperidin-4-yl)ethyl 2-(((5-methylisoxazol-3-yl)methyl)carbamoyl)spiro[bicyclo[2.2.1]heptane-7,1′-cyclopropane]-3-carboxylate]]
8.8 | O=C(OCC[C@@H]1CCCCN1)[C@H]1[C@H](C(=O)Nc2ccc(Br)nc2)[C@@H]2CC[C@H]1C21CC1 [Example 11, (1S,2R,3R,4R)-[(S)-2-(Piperidin-2-yl)ethyl 2-((6-bromopyridin-3-yl)carbamoyl)spiro[bicyclo[2.2.1]heptane-7,1′-cyclopropane]-3-carboxylate]hydrochloride]
